Data reported in article PMC3855985, “Simultaneous Determination of Volatile Constituents from Acorus tatarinowii Schott in Rat Plasma by Gas Chromatography-Mass Spectrometry with Selective Ion Monitoring and Application in Pharmacokinetic Study” (Journal of Analytical Methods in Chemistry, 2013).

Assay: Pharmacokinetic study in rats after single oral dose of volatile oil of Acorus tatarinowii Schott (GC-MS/SIM of plasma)
Details: for CL / Vd / AUC(0~t) / AUC(0~∞) / C max / T1/2 α / T 1/2β / T max: rats (n = 6); for CL / Vd / Compartment model of the plasma profile / AUC(0~t) / AUC(0~∞) / C max / T1/2 α / T 1/2β / T max: single oral dose 0.2 g/kg volatile oil of Acorus tatarinowii Schott; for Compartment model of the plasma profile: rats
Method: GC-MS analyses were performed with a Shimadzu GC-MS QP2010 (Kyoto, Japan). Chromatographic separation was achieved on a Restek Rxi-5MS capillary column (30 m × 0.32 mm I.D., 0.25 μm film thickness, Shimadzu, Japan) using nitrogen as carrier gas at 2 mL/min in a constant flow rate mode. […] The temperatures of injector, interface, and ion source were 250, 280, and 230°C, respectively. Detection was operated by selected ionmonitoring (SIM) mode (70 eV, electron impact mode).
In the SIM mode, the peaks of α-asarone, β-asarone, methyl eugenol, and IS in plasma were identified by matching the retention time and the abundant ions of m/z 178 for methyl eugenol, m/z 208 for α-asarone, β-asarone, and m/z 144 for IS. The injection volume was 1.0 μL. Data were collected using the GC-MS solution (Kyoto, Japan).
Six healthy male Sprague-Dawley rats, weighing 250–280 g, were supplied by the Guangdong Laboratory Animals Monitoring Institute (Guangdong, China). The rats were housed in a standard animal holding room with normal access to food and water and 12 h light cycle. The animals were fasted overnight prior to dosing, with water allowance ad libitum. All animal experiments were carried out according to the Guidelines for the Care and Use of Laboratory Animals and were approved by the Animal Experimentation Ethics Committee.
In a 1.5 mL Eppendorf tube, 100 μL of plasma was spiked with 10 μL of 2.0 μg/mL IS solution. An aliquot of 40 μL 10% (V : V) trichloracetic acid water solution and 600 μL acetonitrile was used to remove the proteins in the plasma through vortexed for 2 min followed by the centrifugation of 10 min at 8000 rpm. The supernatant was collected in a clean tube for next use, while the residue was extracted by 300 μL acetic ether for three times. The acetic ether layer and the above supernatant were collected together and evaporated to dryness under a stream of nitrogen. The residue was dissolved in 100 μL of acetone for further GC-MS analysis.
Volatile oil of Acorus tatarinowii Schott was administered orally to the rat in a single dose of 0.2 g/kg. Blood samples were collected in heparinized tube at 0, 5, 10, 20, 30, 60, 90, 120, 180, 300, 480, 720, 960, and 1200 min after dose. All the samples were extracted and analyzed under the proposed condition.
The Microsoft Excel Program Drug and Statistics 2.0 (T.C.M. Shanghai, China) was employed to process and calculate the pharmacokinetic parameters. The parameters of the area under curve (AUC), the maximum plasma concentration (C max) and the corresponding time (t max), the half-life of absorption (t 1/2), and so forth were used to decrypt the pharmacokinetic properties of α-asarone, β-asarone, and methyl eugenol. Statistical analysis of the biological data was performed by the Student's t-test. All results were expressed as arithmetic mean ± standard deviation (SD).

[1] = male, Sprague-Dawley, rat, plasma, po, 0.2 g/kg

AUC(0-inf) [1] [ng·h/mL]	AUC(0-t) [1] [ng·h/mL]	Cmax [1] [ng/mL]	Tmax [1] [min]	half-life [1] [min]	SMILES	CL (plasma) [mL/min/kg]	Vd (plasma) [L/kg]	Compartment model of the plasma profile	AUC(0~t) (plasma) [mg·min/L]	AUC(0~∞) (plasma) [mg·min/L]	C max (plasma) [ng/mL]	T1/2 α (plasma) [min]	T 1/2β (plasma) [min]	T max (plasma) [min]
41.5	35.5	21 ± 1	10	67.7 ± 3.32	C=CCc1ccc(OC)c(OC)c1 [Methyl Eugenol, Methyl eugenol]	0.40 ± 0.04	39.35 ± 4.08	one-compartment open models						
					C/C=C/c1cc(OC)c(OC)cc1OC [α-Asarone]	0.60 ± 0.44	22.93 ± 16.11	two-compartment open model	47.51 ± 28.49	56.67 ± 35.91	530 ± 240	58.92 ± 20.80	69.28 ± 6.12	11.25 ± 6.29
					C/C=C\c1cc(OC)c(OC)cc1OC [β-Asarone, β-asarone]	0.38 ± 0.05	149.87 ± 90.78	two-compartment open model	368.43 ± 40.05	407.52 ± 55.78	2470 ± 580	54.39 ± 29.46	69.30 ± 0.21	13.75 ± 11.09
